Laboratory results taken from patent publication US8623869B2, “Compounds useful as inhibitors of ATR kinase” (Vertex Pharmaceuticals Incorporated, priority 2010, dated 2014).

The compounds below were run against T1, full-length ATR (Homo sapiens, UniProt Q13535) (assay: ATR Inhibition Assay (radioactive-phosphate incorporation)). Conditions: Ki(app); 5 nM full-length ATR, 10 μM ATP, 800 μM target peptide, 25° C.
T1 construct: Assays were carried out at 25° C. in the presence of 5 nM full-length ATR
T1 sequence (Q13535 whole entry): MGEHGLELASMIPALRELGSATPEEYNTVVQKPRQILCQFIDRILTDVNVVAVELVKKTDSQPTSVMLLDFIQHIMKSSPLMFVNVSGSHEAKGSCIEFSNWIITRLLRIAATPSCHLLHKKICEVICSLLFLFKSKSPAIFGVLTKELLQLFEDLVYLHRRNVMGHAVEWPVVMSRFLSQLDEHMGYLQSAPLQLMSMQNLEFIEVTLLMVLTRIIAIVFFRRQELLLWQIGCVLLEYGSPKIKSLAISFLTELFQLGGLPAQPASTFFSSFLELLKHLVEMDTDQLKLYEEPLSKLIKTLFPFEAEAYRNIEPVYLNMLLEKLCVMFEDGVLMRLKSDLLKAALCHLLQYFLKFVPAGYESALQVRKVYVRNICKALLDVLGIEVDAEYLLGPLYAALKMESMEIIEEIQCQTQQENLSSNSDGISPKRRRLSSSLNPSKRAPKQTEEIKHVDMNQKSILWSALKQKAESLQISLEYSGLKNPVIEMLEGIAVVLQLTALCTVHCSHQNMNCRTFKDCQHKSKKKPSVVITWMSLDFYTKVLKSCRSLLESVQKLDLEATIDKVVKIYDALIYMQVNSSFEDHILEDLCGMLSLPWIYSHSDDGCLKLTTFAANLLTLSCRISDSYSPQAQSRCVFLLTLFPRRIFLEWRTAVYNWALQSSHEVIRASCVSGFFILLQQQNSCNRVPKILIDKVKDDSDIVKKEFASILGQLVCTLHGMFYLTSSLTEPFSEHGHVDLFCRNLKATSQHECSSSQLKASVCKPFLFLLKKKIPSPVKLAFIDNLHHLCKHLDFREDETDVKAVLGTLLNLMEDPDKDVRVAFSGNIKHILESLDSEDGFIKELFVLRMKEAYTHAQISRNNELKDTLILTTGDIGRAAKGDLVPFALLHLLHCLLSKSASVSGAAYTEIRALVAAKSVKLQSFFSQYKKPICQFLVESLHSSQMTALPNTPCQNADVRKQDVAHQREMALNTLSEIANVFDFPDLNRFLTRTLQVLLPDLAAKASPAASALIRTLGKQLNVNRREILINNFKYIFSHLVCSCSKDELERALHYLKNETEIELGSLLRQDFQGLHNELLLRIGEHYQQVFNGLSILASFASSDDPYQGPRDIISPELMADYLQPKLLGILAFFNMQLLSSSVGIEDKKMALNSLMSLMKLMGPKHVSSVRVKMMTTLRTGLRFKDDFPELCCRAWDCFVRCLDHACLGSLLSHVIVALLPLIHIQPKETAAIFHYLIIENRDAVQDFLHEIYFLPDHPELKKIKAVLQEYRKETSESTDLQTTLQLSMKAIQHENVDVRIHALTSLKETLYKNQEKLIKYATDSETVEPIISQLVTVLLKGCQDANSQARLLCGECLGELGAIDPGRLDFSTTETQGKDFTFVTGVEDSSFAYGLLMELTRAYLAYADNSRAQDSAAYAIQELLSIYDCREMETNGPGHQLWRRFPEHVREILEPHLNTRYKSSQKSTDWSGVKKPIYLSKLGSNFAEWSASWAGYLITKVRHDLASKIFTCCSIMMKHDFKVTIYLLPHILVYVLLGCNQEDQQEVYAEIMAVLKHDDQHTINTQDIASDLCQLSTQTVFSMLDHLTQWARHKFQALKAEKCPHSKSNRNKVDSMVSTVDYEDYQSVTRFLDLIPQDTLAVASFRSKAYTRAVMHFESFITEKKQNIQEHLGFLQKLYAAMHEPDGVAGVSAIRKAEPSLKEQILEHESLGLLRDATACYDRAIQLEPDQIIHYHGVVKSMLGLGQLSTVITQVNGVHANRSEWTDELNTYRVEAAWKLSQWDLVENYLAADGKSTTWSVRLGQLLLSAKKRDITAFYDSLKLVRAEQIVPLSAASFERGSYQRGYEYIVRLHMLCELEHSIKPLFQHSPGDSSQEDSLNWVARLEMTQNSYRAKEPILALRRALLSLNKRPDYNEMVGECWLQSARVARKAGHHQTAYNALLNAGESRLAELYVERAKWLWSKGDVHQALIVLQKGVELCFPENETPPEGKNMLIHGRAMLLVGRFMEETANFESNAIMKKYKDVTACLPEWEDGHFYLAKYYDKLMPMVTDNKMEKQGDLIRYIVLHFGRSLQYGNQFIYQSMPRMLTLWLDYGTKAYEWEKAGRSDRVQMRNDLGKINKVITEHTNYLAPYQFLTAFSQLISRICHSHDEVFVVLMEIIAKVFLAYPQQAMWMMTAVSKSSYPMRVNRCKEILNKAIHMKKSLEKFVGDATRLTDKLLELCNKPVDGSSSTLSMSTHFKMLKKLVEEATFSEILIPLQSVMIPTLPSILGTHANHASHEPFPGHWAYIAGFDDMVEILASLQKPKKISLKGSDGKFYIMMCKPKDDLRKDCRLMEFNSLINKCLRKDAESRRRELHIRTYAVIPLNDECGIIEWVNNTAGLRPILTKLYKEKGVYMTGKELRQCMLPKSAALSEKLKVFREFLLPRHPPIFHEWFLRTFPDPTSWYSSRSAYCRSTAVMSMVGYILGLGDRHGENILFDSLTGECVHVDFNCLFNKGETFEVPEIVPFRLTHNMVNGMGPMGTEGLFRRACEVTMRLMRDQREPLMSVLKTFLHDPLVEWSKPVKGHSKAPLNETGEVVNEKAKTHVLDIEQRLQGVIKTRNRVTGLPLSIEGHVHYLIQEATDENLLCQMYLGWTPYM
Format: biochemical
Description: Compounds were screened for their ability to inhibit ATR kinase using a radioactive-phosphate incorporation assay. Assays were carried out in a mixture of 50 mM Tris/HCl (pH 7.5), 10 mM MgCl2 and 1 mM DTT. Final substrate concentrations were 10 μM [γ-33P]ATP (3mCi 33P ATP/mmol ATP, Perkin Elmer) and 800 μM target peptide (ASELPASQPQPFSAKKK).
Assays were carried out at 25° C. in the presence of 5 nM full-length ATR. An assay stock buffer solution was prepared containing all of the reagents listed above, with the exception of ATP and the test compound of interest. 13.5 μL of the stock solution was placed in a 96 well plate followed by addition of 2 μL of DMSO stock containing serial dilutions of the test compound (typically starting from a final concentration of 15 μM with 3-fold serial dilutions) in duplicate (final DMSO concentration 7%). The plate was pre-incubated for 10 minutes at 25° C. and the reaction initiated by addition of 15 μL [γ-33P]ATP (final concentration 10 μM).
The reaction was stopped after […] by the addition of 30 μL 0.1M phosphoric acid containing 2 mM ATP. A multiscreen phosphocellulose filter 96-well plate (Millipore, Cat no. MAPHN0B50) was pretreated with 100 μL 0.2M phosphoric acid prior to the addition of 45 μL of the stopped assay mixture. The plate was washed with 5×200 μL 0.2M phosphoric acid. After drying, 100 μL Optiphase ‘SuperMix’ liquid scintillation cocktail (Perkin Elmer) was added to the well prior to scintillation counting (1450 Microbeta Liquid Scintillation Counter, Wallac).
After removing mean background values for all of the data points, Ki(app) data were calculated from non-linear regression analysis of the initial rate data using the Prism software package (GraphPad Prism version 3.0cx for Macintosh, GraphPad Software, San Diego Calif., USA).

Compound | Ki [nM]
CC(C)S(=O)(=O)c1ccc(-c2cnc3[nH]cc(-c4cnc(N)cn4)c3n2)cc1 [Compound I-9, 5-[2-(4-isopropylsulfonylphenyl)-5H-pyrrolo[2,3-b]pyrazin-7-yl]pyrazin-2-amine] | > 50
CC(C)S(=O)(=O)c1ccc(-c2cnc3[nH]cc(-c4cccc5cnccc45)c3n2)cc1 [Compound I-41, 5-[2-(4-isopropylsulfonylphenyl)-5H-pyrrolo[2,3-b]pyrazin-7-yl]isoquinoline] | > 50
COCc1ccccc1-c1c[nH]c2ncc(-c3ccc(S(=O)(=O)C(C)C)cc3)nc12 [Compound I-17, 2-(4-isopropylsulfonylphenyl)-7-[2-(methoxymethyl)phenyl]-5H-pyrrolo[2,3-b]pyrazine] | > 50
CC(C)S(=O)(=O)c1ccc(-c2cnc3[nH]cc(-c4ccnc5ccccc45)c3n2)cc1 [Compound I-43, 4-[2-(4-isopropylsulfonylphenyl)-5H-pyrrolo[2,3-b]pyrazin-7-yl]quinoline] | > 50
CC(C)S(=O)(=O)c1ccc(-c2cnc3[nH]cc(-c4cc5cc(F)ccc5n4C(=O)OC(C)(C)C)c3n2)cc1 [Compound I-56, tert-butyl 5-fluoro-2-[2-(4-isopropylsulfonylphenyl)-5H-pyrrolo[2,3-b]pyrazin-7-yl]indole-1-carboxylate] | > 50
CC(C)S(=O)(=O)c1ccc(-c2cnc3[nH]cc(-c4ccccc4C(=O)N(C)C)c3n2)cc1 [Compound I-19, 2-[2-(4-isopropylsulfonylphenyl)-5H-pyrrolo[2,3-b]pyrazin-7-yl]-N,N-dimethyl-benzamide] | > 50
CC(C)S(=O)(=O)c1ccc(-c2cnc3[nH]cc(-c4cn(S(=O)(=O)c5ccccc5)c5ccccc45)c3n2)cc1 [Compound I-59, 7-[1-(benzenesulfonyl)indol-3-yl]-2-(4-isopropylsulfonylphenyl)-5H-pyrrolo[2,3-b]pyrazine] | > 50
CC(C)S(=O)(=O)c1ccc(-c2cnc3[nH]cc(-c4cccc5[nH]ccc45)c3n2)cc1 [Compound I-12, 7-(1H-indol-4-yl)-2-(4-isopropylsulfonylphenyl)-5H-pyrrolo[2,3-b]pyrazine] | > 50
CC(C)S(=O)(=O)c1ccc(-c2cnc3[nH]cc(-c4ccccc4C(N)=O)c3n2)cc1 [Compound I-18, 2-[2-(4-isopropylsulfonylphenyl)-5H-pyrrolo[2,3-b]pyrazin-7-yl]benzamide] | > 50
COc1cc(-c2c[nH]c3ncc(-c4ccc(S(=O)(=O)C(C)C)cc4)nc23)c(F)cn1 [Compound I-39, 7-(5-fluoro-2-methoxy-4-pyridyl)-2-(4-isopropylsulfonylphenyl)-5H-pyrrolo[2,3-b]pyrazine] | > 50

Other lines, results leading:

Ki [nM] | Compound
> 50 | CC(C)S(=O)(=O)c1ccc(-c2cnc3[nH]cc(-c4ccc(OCCCN(C)C)nc4)c3n2)cc1 [Compound I-11, 3[[5-[2-(4-isopropylsulfonylphenyl)-5H-pyrrolo[2,3-b]pyrazin-7-yl]-2-pyridyl]oxy]-N,N-dimethyl-propan-1-amine]
≤ 10 | CC(C)S(=O)(=O)c1ccc(-c2cnc3[nH]cc(-c4cnc(N)nc4)c3n2)cc1 [Compound I-13, 5-[2-(4-isopropylsulfonylphenyl)-5H-pyrrolo[2,3-b]pyrazin-7-yl]pyrimidin-2-amine]
> 50 | Cc1n[nH]c(C)c1-c1c[nH]c2ncc(-c3ccc(S(=O)(=O)C(C)C)cc3)nc12 [Compound I-52, 7-(3,5-dimethyl-1H-pyrazol-4-yl)-2-(4-isopropylsulfonylphenyl)-5H-pyrrolo[2,3-b]pyrazine]
10 to 50 | CC(C)S(=O)(=O)c1ccc(-c2cnc3[nH]cc(-c4ccc(N(C)C)nc4)c3n2)cc1 [Compound I-37, 5-[2-(4-isopropylsulfonylphenyl)-5H-pyrrolo[2,3-b]pyrazin-7-yl]-N,N-dimethyl-pyridin-2-amine]
10 to 50 | CC(C)S(=O)(=O)c1ccc(-c2cnc3[nH]cc(-c4cc5ccccc5o4)c3n2)cc1 [Compound I-36, 7-(benzofuran-2-yl)-2-(4-isopropylsulfonylphenyl)-5H-pyrrolo[2,3-b]pyrazine]
10 to 50 | CC(C)S(=O)(=O)c1ccc(-c2cnc3[nH]cc(-c4scc5c4OCCO5)c3n2)cc1 [Compound I-20, 7-(2,3-dihydrothieno[3,4-b][1,4]dioxin-5-yl)-2-(4-isopropylsulfonylphenyl)-5H-pyrrolo[2,3-b]pyrazine]
≤ 10 | CC(C)S(=O)(=O)c1ccc(-c2cnc3[nH]cc(-c4cc(O[C@H](C)c5ccccc5Cl)c(C(=O)O)s4)c3n2)cc1 [Compound I-70, 3-[(1R)-1-(2-chlorophenyl)ethoxy]-5-[2-(4-isopropylsulfonylphenyl)-5H-pyrrolo[2,3-b]pyrazin-7-yl]thiophene-2-carboxylic acid]
10 to 50 | CC(C)S(=O)(=O)c1ccc(-c2cnc3[nH]cc(-c4cncc5ccccc45)c3n2)cc1 [Compound I-42, 4-[2-(4-isopropylsulfonylphenyl)-5H-pyrrolo[2,3-b]pyrazin-7-yl]isoquinoline]
10 to 50 | CC(C)S(=O)(=O)c1ccc(-c2cnc3[nH]cc(-c4ccncc4)c3n2)cc1 [Compound I-10, 2-(4-isopropylsulfonylphenyl)-7-(4-pyridyl)-5H-pyrrolo[2,3-b]pyrazine]
